Laboratory results taken from patent publication US7601743B2, “Cyano anthranilamide insecticides” (Syngenta Crop Protection, Inc., priority 2005, dated 2009).

Tests used:
Type in all cases: in vivo
[1] = system: Heliothis virescens; experiment: Activity against Heliothis virescens (foliar application); conditions: 144 h, 400 ppm spray on young soya plants, 1st instar, 6 days, read-out: percentage reduction in the population and in the feeding damage (% activity)
Experimental: (§1) Young soya plants are sprayed with an aqueous emulsion spray mixture comprising 400 ppm of active ingredient and, after the spray coating has dried on, populated with 10 caterpillars (1st instar) of Heliothis virescens and introduced into a plastic container. 6 days later, the percentage reduction in the population and in the feeding damage (% activity) are determined by comparing the number of dead caterpillars and the feeding damage between the treated and untreated plants.

[2] = system: Spodoptera littoralis; experiment: Activity against Spodoptera littoralis (sprayed soya plants); conditions: 72 h, 400 ppm spray on young soya plants, 1st instar, 3 days, read-out: percentage reduction in the population and in the feeding damage (% activity)
Experimental: as §1, with “Spodoptera littoralis” for “Heliothis virescens”, “3” for “6”

[3] = system: Diabrotica balteata; experiment: Activity against Diabrotica balteata (sprayed maize seedlings); conditions: 144 h, 400 ppm spray on maize seedlings, 2nd instar larvae, 6 days, read-out: percentage reduction in the population (% activity)
Experimental: Maize seedlings are sprayed with an aqueous emulsion spray mixture comprising 400 ppm of active ingredient and, after the spray coating has dried on, populated with 10 larvae (2nd instar) of Diabrotica balteata and introduced into a plastic container. 6 days later, the percentage reduction in the population (% activity) is determined by comparing the number of dead larvae between the treated and untreated plants.

[4] = system: Plutella xylostella; experiment: Activity against Plutella xylostella; conditions: 72 h, 400 ppm spray on young cabbage plants, 3rd instar, 3 days, read-out: percentage reduction in the population and in the feeding damage (% activity)
Experimental: as §1, with “cabbage” for “soya”, “(3rd” for “(1st”, “Plutella xylostella” for “Heliothis virescens”, “3” for “6”

Measured: inhibition at 400 ppm

Cc1cc(C#N)cc(C(=O)NC2(C3CC3)CC2)c1NC(=O)c1cc(C(F)(F)F)nn1-c1ncccc1Cl [A.1.1, 2-(3-Chloro-pyridin-2-yl)-5-trifluoromethyl-2H-pyrazole-3-carboxylic acid [2-(bicyclopropyl-1-ylcarbamoyl)-4-cyano-6-methyl-phenyl]-amide]
> 80%: all assays above
